According to patent publication US10383336B2, “Solutions employing herbicides and buffered amine oxides to kill weeds and related methods” (priority 2015, dated 2019):

What was measured:
Grass (mixed types) = test: Field trial of formulation components, kill rate 1 year after application (TABLE 2, Jun. 14, 2005, near Warren Pa.); assay type: in vivo; conditions: no herbicide; single component at % weight: Ethylene Glycol 0.07, 5 Mol Borax 0.044, Boric Acid 0.037, Barlox 12 0.305
Method: (§1) On Jun. 14, 2005, further trials were conducted near Warren Pa., USA to evaluate the contribution of certain formulation components to herbicide performance from the Jun. 2, 2004 Buffered Amine Oxide system. The same field trial methods were used. The control was distilled water.
(§2) The two herbicides which were tested were 2,4-D and Glyphosate. They were used in concentrations of 50:1 and 200:1. The vegetations tested were raspberry and grass. The components of the various elements employed in the buffered amine oxide formula are expressed in weight percent of the total buffered amine oxide formula. […] The first three components were tested at 200:1 strength with the Ethylene Glycol used alone, the Ethylene Glycol used in combination with 5 Mol Borax and Ethylene Glycol, 5 Mol Borax and Boric Acid used in combination. None of these killed the weeds.
(§3) Where a “0” appears in a block in TABLE 2, this means there were no kills. Where a block is blank, this means that no measurement was taken.

Raspberry = test: as above; assay type: in vivo; conditions: no herbicide; single component at % weight: Ethylene Glycol 0.07, 5 Mol Borax 0.044, Boric Acid 0.037, Barlox 12 0.305
Method: as §1, §2, §3

Structure (SMILES)	Kill Rate % 1 Year After Application, Grass (Grass (mixed types))	Kill Rate % 1 Year After Application, Raspberry (Raspberry)
O.O.O.O.O.[Na+].[Na+].[O-]B1OB2OB([O-])OB(O1)O2 [5 Mol Borax]	0%	0%
OB(O)O [Boric Acid]	0%	0%
OCCO [Ethylene Glycol]	0%	0%
